Molecular target: Norovirus polymerase (NoVpol, genotype II) (Lordsdale virus, UniProt P54634)
Assay: biochemical
Settings: not given

Norovirus polymerase (NoVpol, genotype II), sequence (P54634 1190-1699 limits assumed): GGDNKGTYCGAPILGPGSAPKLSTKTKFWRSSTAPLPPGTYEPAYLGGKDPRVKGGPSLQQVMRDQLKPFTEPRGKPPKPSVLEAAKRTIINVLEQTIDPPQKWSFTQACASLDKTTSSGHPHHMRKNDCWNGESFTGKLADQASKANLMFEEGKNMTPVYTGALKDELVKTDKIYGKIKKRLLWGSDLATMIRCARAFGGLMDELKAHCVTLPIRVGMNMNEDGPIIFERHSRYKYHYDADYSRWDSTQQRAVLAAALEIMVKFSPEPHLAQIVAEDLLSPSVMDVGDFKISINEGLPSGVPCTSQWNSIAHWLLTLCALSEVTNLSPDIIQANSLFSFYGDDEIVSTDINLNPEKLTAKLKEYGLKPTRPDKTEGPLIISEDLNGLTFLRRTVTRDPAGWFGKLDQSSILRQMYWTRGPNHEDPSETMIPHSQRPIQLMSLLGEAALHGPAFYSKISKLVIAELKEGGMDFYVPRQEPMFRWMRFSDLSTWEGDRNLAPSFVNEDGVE

Row | Structure (SMILES) | IC50 [nM]
1 | C[C@@]1(O)[C@H](O)[C@@](CF)(CO[P@](O)(=S)OP(=O)(O)OP(=O)(O)O)O[C@H]1n1ccc(=O)[nH]c1=O [Compound 171a] | < 1000
2 | C[C@]1(O)C(n2ccc(=O)[nH]c2=O)O[C@H](COP(=O)(O)OP(=O)(O)OP(=O)(O)O)[C@H]1O (some centres unmarked) [Compound 260a] | 1000 to 10000
3 | Nc1ccn([C@@H]2O[C@](CF)(COP(=O)(O)OP(=O)(O)OP(=O)(O)O)[C@@H](O)[C@H]2F)c(=O)n1 [Compound 56c] | < 1000
4 | C#C[C@@]1(O)[C@H](O)[C@@H](COP(O)(=S)OP(=O)(O)OP(=O)(O)O)O[C@H]1n1ccc(=O)[nH]c1=O (some centres unmarked) [Compound 286a] | 1000 to 10000
5 | CC[C@]1(COP(=O)(O)OP(=O)(O)OP(=O)(O)O)O[C@@H](n2ccc(=O)[nH]c2=O)[C@H](F)[C@@H]1O [Compound 37a] | 1000 to 10000

Same assay, conditions: 50 nM recombinant enzyme, 2.5 hours at 30° C.; read-out: IC50

Row | Structure (SMILES) | IC50 [nM]
6 | C[C@]1(O)[C@H](n2ccc(N)nc2=O)O[C@](C)(COP(=O)(O)OP(=O)(O)OP(=O)(O)O)[C@H]1O [Compound 340a] | 1000 to 10000
7 | C=C[C@]1(COP(=O)(O)OP(=O)(O)OP(=O)(O)O)O[C@@H](n2ccc(N)nc2=O)C(F)(F)[C@@H]1O [Compound 224a] | 1000 to 10000
8 | C[C@]1(O)[C@H](n2ccc(N)nc2=O)O[C@](F)(COP(=O)(O)OP(=O)(O)OP(=O)(O)O)[C@H]1O [Compound 238a] | < 1000
9 | C[C@]1(Cl)[C@H](n2ccc(=O)[nH]c2=O)O[C@](F)(COP(=O)(O)OP(=O)(O)OP(=O)(O)O)[C@H]1O [Compound 239a] | 1000 to 10000
10 | Nc1ccn([C@@H]2O[C@@](COP(=O)(O)OP(=O)(O)OP(=O)(O)O)(CC(F)F)[C@@H](O)[C@H]2F)c(=O)n1 [Compound 272a] | 1000 to 10000
11 | C[C@]1(N)[C@H](n2ccc(N)nc2=O)O[C@](F)(COP(=O)(O)OP(=O)(O)OP(=O)(O)O)[C@H]1O [Compound 303a] | 10000 to 100000
12 | C#C[C@]1(COP(=O)(O)OP(=O)(O)OP(=O)(O)O)O[C@@H](n2cnc3c(=O)[nH]c(N)nc32)[C@H](F)[C@@H]1O [Compound 34b] | < 1000
13 | C[C@@]1(O)[C@H](O)[C@@](CF)(COP(=O)(O)OP(=O)(O)OP(=O)(O)O)O[C@H]1n1ccc(N)nc1=O [Compound 354a] | < 1000
14 | C#C[C@@]1(O)[C@H](O)[C@@](CF)(COP(=O)(O)OP(=O)(O)OP(=O)(O)O)O[C@H]1n1cnc2c(N)ncnc21 [Compound 230a] | < 1000
15 | C=CC[C@@]1(O)[C@H](O)[C@@](CF)(COP(=O)(O)OP(=O)(O)OP(=O)(O)O)O[C@H]1n1ccc(=O)[nH]c1=O [Compound 350a] | 1000 to 10000
16 | Nc1ccn([C@@H]2O[C@@](COP(=O)(O)OP(=O)(O)OP(=O)(O)O)(C(F)F)[C@@H](O)[C@H]2F)c(=O)n1 [Compound 329a] | 1000 to 10000
17 | C#C[C@@]1(O)[C@H](O)[C@@H](COP(=O)(O)OP(=O)(O)OP(=O)(O)O)O[C@H]1n1cnc2c(=O)[nH]c(N)nc21 [Compound 290a] | < 1000
18 | C[C@]1(O)[C@H](n2ccc(=O)[nH]c2=O)O[C@](C)(COP(=O)(O)OP(=O)(O)OP(=O)(O)O)[C@H]1O [Compound 217a] | < 1000
19 | N#C[C@@]1(n2ccc(N)nc2=O)O[C@](CF)(COP(=O)(O)OP(=O)(O)OP(=O)(O)O)[C@@H](O)[C@H]1O [Compound 332a] | < 1000
20 | [N-]=[N+]=N[C@]1(COP(=O)(O)OP(=O)(O)OP(=O)(O)O)O[C@@H](n2ccc(=O)[nH]c2=O)[C@H](F)[C@@H]1O [Compound 267a] | < 1000
21 | [N-]=[N+]=NC[C@]1(COP(=O)(O)OP(=O)(O)OP(=O)(O)O)O[C@@H](n2ccc(N)nc2=O)[C@H](F)[C@@H]1O [Compound 115a] | 1000 to 10000
22 | O=c1ccn([C@@H]2O[C@](CCl)(COP(=O)(O)OP(=O)(O)OP(=O)(O)O)[C@@H](O)C2(F)F)c(=O)[nH]1 [Compound 222a] | 10000 to 100000
23 | C#C[C@@]1(O)[C@H](O)[C@@H](COP(=O)(O)OP(=O)(O)OP(=O)(O)O)O[C@H]1n1ccc2c(N)ncnc21 [Compound 292a] | < 1000
24 | C[C@@]1(O)[C@H](O)[C@@](CF)(COP(=O)(O)OP(=O)(O)OP(=O)(O)O)O[C@H]1n1cnc2c(=O)[nH]c(N)nc21 [Compound 216a] | < 1000
25 | [N-]=[N+]=N[C@]1(COP(=O)(O)OP(=O)(O)OP(=O)(O)O)O[C@@H](n2cnc3c(=O)[nH]c(N)nc32)[C@H](O)[C@@H]1O [Compound 268a] | < 1000

Other lines, results leading:

Row | IC50 [nM] | Structure (SMILES)
26 | < 1000 | C#C[C@@]1(O)[C@H](O)[C@@H](COP(=O)(O)OP(=O)(O)OP(=O)(O)O)O[C@H]1n1cnc2c(N)ncnc21 [Compound 289a]
27 | 1000 to 10000 | C#C[C@@]1(n2cnc3c(=O)[nH]c(N)nc32)O[C@H](COP(=O)(O)OP(=O)(O)OP(=O)(O)O)[C@@H](O)[C@H]1F [Compound 335a]
28 | < 1000 | C=C[C@@]1(O)[C@H](O)[C@@](CF)(COP(=O)(O)OP(=O)(O)OP(=O)(O)O)O[C@H]1n1ccc(=O)[nH]c1=O [Compound 348a]
29 | 1000 to 10000 | C=C[C@]1(COP(=O)(O)OP(=O)(O)OP(=O)(O)O)O[C@@H](n2ccc(N)nc2=O)[C@H](F)[C@@H]1O [Compound 36b]
30 | < 1000 | C[C@@]1(Cl)[C@H](O)[C@@H](COP(=O)(O)OP(=O)(O)OP(=O)(O)O)O[C@H]1n1cnc2c(=O)[nH]c(N)nc21 [Compound 343a]
31 | < 1000 | [N-]=[N+]=N[C@]1(COP(=O)(O)OP(=O)(O)OP(=O)(O)O)O[C@@H](n2ccc(N)nc2=O)[C@@H](O)[C@@H]1O [Compound 270a]
32 | 1000 to 10000 | Nc1nc(=O)n([C@@H]2O[C@](CCl)(COP(=O)(O)OP(=O)(O)OP(=O)(O)O)[C@@H](O)[C@H]2F)cc1F [Compound 97g]
33 | 1000 to 10000 | CCC[C@]1(CO)O[C@@H](n2ccc(N)nc2=O)[C@H](F)[C@@H]1O [Compound 21a]
34 | < 1000 | CC#C[C@@]1(O)[C@H](O)[C@@](CF)(COP(=O)(O)OP(=O)(O)OP(=O)(O)O)O[C@H]1n1ccc(=O)[nH]c1=O [Compound 349a]
35 | 1000 to 10000 | C[C@]1(N=[N+]=[N-])[C@H](n2ccc(N)nc2=O)O[C@](F)(COP(=O)(O)OP(=O)(O)OP(=O)(O)O)[C@H]1O [Compound 302a]
36 | < 1000 | C#C[C@@]1(O)[C@H](O)[C@@](CF)(COP(=O)(O)OP(=O)(O)OP(=O)(O)O)O[C@H]1n1ccc(=O)[nH]c1=O [Compound 219a]
37 | 1000 to 10000 | C[C@@]1(O)[C@H](O)[C@@](CN=[N+]=[N-])(COP(=O)(O)OP(=O)(O)OP(=O)(O)O)O[C@H]1n1ccc(=O)[nH]c1=O [Compound 346a]
38 | < 1000 | C[C@]1(O)[C@H](n2cnc3c(=O)[nH]c(N)nc32)O[C@](F)(COP(=O)(O)OP(=O)(O)OP(=O)(O)O)[C@H]1F [Compound 232a]
39 | 10000 to 100000 | C[C@@]1(Cl)[C@H](O)[C@@](CF)(COP(=O)(O)OP(=O)(O)OP(=O)(O)O)O[C@H]1n1ccc(=O)[nH]c1=O [Compound 306a]
40 | < 1000 | [N-]=[N+]=N[C@]1(COP(=O)(O)OP(=O)(O)OP(=O)(O)O)O[C@@H](n2ccc(N)nc2=O)[C@H](O)[C@@H]1O [Compound 383a]
41 | 1000 to 10000 | CO[C@]1(COP(=O)(O)OP(=O)(O)OP(=O)(O)O)O[C@@H](n2ccc(N)nc2=O)[C@H](F)[C@@H]1O [Compound 36d]
42 | < 1000 | C[C@]1(F)[C@H](n2cnc3c(=O)[nH]c(N)nc32)O[C@](F)(COP(=O)(O)OP(=O)(O)OP(=O)(O)O)[C@H]1O [Compound 214a]

Row | IC50 [nM] | Structure (SMILES)
43 | 1000 to 10000 | O=c1ccn([C@@H]2O[C@](CF)(COP(=O)(O)OP(=O)(O)OP(=O)(O)O)[C@@H](O)[C@]2(O)CF)c(=O)[nH]1 [Compound 353a]
44 | < 1000 | C#C[C@@]1(O)[C@H](O)[C@@](CCl)(COP(=O)(O)OP(=O)(O)OP(=O)(O)O)O[C@H]1n1cnc2c(N)ncnc21 [Compound 342a]
45 | 1000 to 10000 | C[C@]1(O)[C@H](n2cnc3c(N)ncnc32)O[C@](F)(COP(=O)(O)OP(=O)(O)OP(=O)(O)O)[C@H]1O [Compound 333a]
46 | 1000 to 10000 | O=c1ccn([C@@H]2O[C@](CCl)(COP(=O)(O)OP(=O)(O)OP(=O)(O)O)[C@@H](O)[C@H]2F)c(=O)[nH]1 [Compound 56a]
47 | 1000 to 10000 | C[C@]1(O)[C@H](n2ccc(=O)[nH]c2=O)O[C@](F)(COP(=O)(O)OP(=O)(O)OP(=O)(O)O)[C@H]1O [Compound 122a]
48 | 1000 to 10000 | Nc1ccn([C@@H]2O[C@](CF)(COP(=O)(O)OP(=O)(O)OP(=O)(O)O)[C@@H](O)C2(F)F)c(=O)n1 [Compound 227a]
49 | < 1000 | Nc1ncnc2c1ncn2[C@@H]1O[C@](CF)(COP(=O)(O)OP(=O)(O)OP(=O)(O)O)[C@@H](O)[C@H]1F [Compound 98c]
50 | < 1000 | [N-]=[N+]=NC[C@]1(COP(=O)(O)OP(=O)(O)OP(=O)(O)O)O[C@@H](n2ccc(=O)[nH]c2=O)[C@H](F)[C@@H]1O [Compound 114a]
51 | < 1000 | C#C[C@]1(O)[C@H](n2cnc3c(=O)[nH]c(N)nc32)O[C@](F)(COP(=O)(O)OP(=O)(O)OP(=O)(O)O)[C@H]1O [Compound 236a]
52 | 1000 to 10000 | C#C[C@]1(COP(=O)(O)OP(=O)(O)OP(=O)(O)O)O[C@@H](n2ccc(N)nc2=O)[C@H](F)[C@@H]1O [Compound 36c]
53 | < 1000 | Nc1ccn([C@@H]2O[C@](CF)(COP(=O)(O)OP(=O)(O)OP(=O)(O)O)[C@@H](O)[C@]2(O)CF)c(=O)n1 [Compound 355a]
54 | < 1000 | O=c1ccn([C@@H]2O[C@](CF)(COP(=O)(O)OP(=O)(O)OP(=O)(O)O)[C@@H](O)[C@H]2F)c(=O)[nH]1 [Compound 111a]
55 | 1000 to 10000 | O=c1[nH]cnc2c1ncn2[C@@H]1O[C@](CCl)(COP(=O)(O)OP(=O)(O)OP(=O)(O)O)[C@@H](O)[C@H]1F [Compound 98b]
56 | < 1000 | C#C[C@]1(O)[C@H](n2cnc3c(=O)[nH]c(N)nc32)O[C@](F)(COP(=O)(O)OP(=O)(O)OP(=O)(O)O)[C@H]1F [Compound 233a]
57 | < 1000 | C[C@]1(COP(=O)(O)OP(=O)(O)OP(=O)(O)O)O[C@@H](n2cnc3c(=O)[nH]c(N)nc32)[C@H](O)[C@@H]1O [Compound 334a]
58 | 1000 to 10000 | C[C@@]1(Cl)[C@H](O)[C@@H](COP(=O)(O)OP(=O)(O)OP(=O)(O)O)O[C@H]1n1ccc(N)nc1=O [Compound 262a]
59 | < 1000 | N#C[C@]1(COP(=O)(O)OP(=O)(O)OP(=O)(O)O)O[C@@H](n2cnc3c(=O)[nH]c(N)nc32)[C@H](F)[C@@H]1O [Compound 34e]
